For 17 compounds, TGI results are on record in PubChem BioAssay (NCI).

The structures appear in SMILES notation.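 Tested at 5 concentrations; 48 h exposure; 96-well plates; endpoints linearly interpolated, else capped at highest concentration. Definition used: TGI = concentration required for complete inhibition of growth.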 Some results are limits rather than exact numbers.

Some test systems named below: RXF 393 renal; SF-295 CNS; UACC-62 melanoma; HOP-62 NSCLC; 786-0 renal; M14 melanoma; OVCAR-4 ovarian; UO-31 renal; SK-MEL-2 melanoma; KM12 colon; OVCAR-5 ovarian; K-562 leukemia; SK-OV-3 ovarian; LOX IMVI melanoma; UACC-257 melanoma; PC-3 prostate; NCI/ADR-RES ovarian; DU-145 prostate; SN12C renal.
Common to all, as to assay: NCI anticancer screen, dose series, 48 h

Take `CCOc1ccc(C2=NN(CC)C(=O)C(C3C(=O)N(c4ccccc4)N=C3C)C2)cc1` (configuration not stated): the TGI in the assay with RXF 393 renal, in the assay on SF-295 CNS, in the assay with UACC-62 melanoma, in the assay with HOP-62 NSCLC, in the assay with 786-0 renal and with M14 melanoma was over 100 µM each time. Also, the TGI in the assay on OVCAR-4 ovarian, in the assay with UO-31 renal, in the assay on SK-MEL-2 melanoma, with KM12 colon, in the assay with OVCAR-5 ovarian and in the assay on K-562 leukemia was over 100 µM throughout. For the same compound, the TGI in the assay with SK-OV-3 ovarian, with LOX IMVI melanoma and in the assay with UACC-257 melanoma was over 100 µM in each case.
Take `C[N+]1(C)CCCC(C#N)(c2ccccc2)CC1` (configuration not stated): the TGI with RXF 393 renal, in the assay on SF-295 CNS, in the assay on PC-3 prostate, in the assay on HOP-62 NSCLC, with 786-0 renal and with M14 melanoma was over 100 µM in each case. Also, the TGI in the assay with OVCAR-4 ovarian, in the assay on UO-31 renal, in the assay with NCI/ADR-RES ovarian, in the assay on KM12 colon, in the assay with OVCAR-5 ovarian and with K-562 leukemia was over 100 µM in each case. The TGI in the assay on SK-OV-3 ovarian, in the assay on UACC-257 melanoma and in the assay on DU-145 prostate was over 100 µM in each case.
Regarding `C=CCNC(=S)NNC(=O)c1c(C)nc2sccn12`, the TGI in the assay with RXF 393 renal, in the assay on SN12C renal, with SF-295 CNS, in the assay with UACC-62 melanoma, with HOP-62 NSCLC and in the assay with 786-0 renal was over 100 µM in each case. Moreover, the TGI in the assay on SK-MEL-2 melanoma, in the assay with KM12 colon, with OVCAR-5 ovarian, in the assay with K-562 leukemia, with SK-OV-3 ovarian and with LOX IMVI melanoma was over 100 µM in each case. The TGI in the assay on UACC-257 melanoma was over 100 µM.
Take `COc1ccc(OC)c2c(C(C)=O)cccc12`: the TGI in the assay on RXF 393 renal, with SN12C renal, in the assay on SF-295 CNS, in the assay on PC-3 prostate, with UACC-62 melanoma and in the assay on HOP-62 NSCLC was over 100 µM in each case. For the same compound, the TGI in the assay on 786-0 renal, in the assay on UO-31 renal, with NCI/ADR-RES ovarian, with KM12 colon, in the assay on OVCAR-5 ovarian and with K-562 leukemia was over 100 µM throughout. Also, the TGI in the assay with SK-OV-3 ovarian, with UACC-257 melanoma and in the assay with DU-145 prostate was over 100 µM throughout.
With `COc1cc2c(oc(=O)c3c4occc4cc(OC)c23)c2cccc(O)c12`, the TGI with RXF 393 renal, in the assay with SN12C renal, in the assay on SF-295 CNS, in the assay with UACC-62 melanoma, in the assay on HOP-62 NSCLC and with 786-0 renal was over 100 µM throughout. The TGI in the assay on M14 melanoma, in the assay on OVCAR-4 ovarian, in the assay on UO-31 renal, in the assay with KM12 colon, in the assay with OVCAR-5 ovarian and in the assay on K-562 leukemia was over 100 µM in each case. Besides, the TGI in the assay on SK-OV-3 ovarian, in the assay with LOX IMVI melanoma and in the assay on UACC-257 melanoma was over 100 µM throughout.
With `CNC(=S)N/N=C/C(C)=N/NC(=S)NC`, the TGI in the assay with RXF 393 renal, with SN12C renal, in the assay on SF-295 CNS, with UACC-62 melanoma, with HOP-62 NSCLC and with 786-0 renal was over 100 µM each time. The TGI in the assay with M14 melanoma, in the assay with UO-31 renal, in the assay with SK-MEL-2 melanoma, in the assay with KM12 colon, with OVCAR-5 ovarian and in the assay with SK-OV-3 ovarian was over 100 µM throughout. In the assay on LOX IMVI melanoma, this compound displayed a TGI of over 100 µM.
In the case of `CCOC(=O)C1=C(O)CC(=O)N=C1N1CCCC1`, the TGI with RXF 393 renal, with SN12C renal, in the assay with SF-295 CNS, in the assay on PC-3 prostate, in the assay with UACC-62 melanoma and with HOP-62 NSCLC was over 100 µM each time. Besides, the TGI in the assay on 786-0 renal, in the assay on M14 melanoma, in the assay with OVCAR-4 ovarian, in the assay on UO-31 renal, with NCI/ADR-RES ovarian and with SK-MEL-2 melanoma was over 100 µM each time. For the same compound, the TGI in the assay on KM12 colon, in the assay with OVCAR-5 ovarian, with K-562 leukemia, in the assay with SK-OV-3 ovarian, with LOX IMVI melanoma and in the assay with UACC-257 melanoma was over 100 µM throughout. The compound also gave a TGI in the assay with DU-145 prostate of over 100 µM.
`Cc1ccc(C)c2c1C1CCCCC3(OCCCO3)C21O` (configuration not stated): the TGI in the assay with RXF 393 renal, in the assay on SN12C renal, with SF-295 CNS, in the assay with UACC-62 melanoma, with HOP-62 NSCLC and in the assay on 786-0 renal was over 100 µM in each case. The TGI with M14 melanoma, in the assay on OVCAR-4 ovarian, with UO-31 renal, in the assay with SK-MEL-2 melanoma, with KM12 colon and with OVCAR-5 ovarian was over 100 µM in each case. The TGI in the assay on K-562 leukemia, in the assay on SK-OV-3 ovarian, in the assay with LOX IMVI melanoma and with UACC-257 melanoma was over 100 µM in each case.
With `OC12CCC3(OC4CCCCO4)c4ccccc4C3C1c1ccccc12` (configuration not stated), the TGI with RXF 393 renal, in the assay on SN12C renal, in the assay on SF-295 CNS, in the assay on UACC-62 melanoma, in the assay with HOP-62 NSCLC and in the assay on 786-0 renal was over 100 µM throughout. Moreover, the TGI with M14 melanoma, with OVCAR-4 ovarian, in the assay with UO-31 renal, in the assay on SK-MEL-2 melanoma, in the assay on KM12 colon and in the assay with K-562 leukemia was over 100 µM in each case. The TGI in the assay on SK-OV-3 ovarian, in the assay with LOX IMVI melanoma and in the assay with UACC-257 melanoma was over 100 µM throughout.
For the compound `Cc1ccc(/C=c2\cc3oc(=O)c4cccc(c4-3)c2=O)cc1`, the TGI in the assay on SN12C renal, with SF-295 CNS, in the assay on PC-3 prostate, with UACC-62 melanoma, with HOP-62 NSCLC and with 786-0 renal was over 100 µM throughout. Besides, the TGI in the assay on M14 melanoma, with OVCAR-4 ovarian, in the assay on UO-31 renal, with NCI/ADR-RES ovarian, in the assay with SK-MEL-2 melanoma and in the assay on OVCAR-5 ovarian was over 100 µM in each case. The TGI in the assay on K-562 leukemia, in the assay with SK-OV-3 ovarian, in the assay on LOX IMVI melanoma, in the assay on UACC-257 melanoma and in the assay with DU-145 prostate was over 100 µM in each case.
As for `S=C(NCc1ccccn1)N/N=C/c1ccccn1`, the TGI in the assay on RXF 393 renal was 4.52 µM; in the assay with SN12C renal, 9.25 µM; in the assay with SF-295 CNS, over 96 µM; with PC-3 prostate, over 84.9 µM; with UACC-62 melanoma, 4.12 µM; in the assay with 786-0 renal, over 86.1 µM. For the same compound, the TGI with M14 melanoma is over 100 µM; in the assay with OVCAR-4 ovarian it was over 30.5 µM; with UO-31 renal it was 32.6 µM; with NCI/ADR-RES ovarian, over 100 µM; in the assay on SK-MEL-2 melanoma it was 0.876 µM; in the assay with KM12 colon it was over 100 µM. Moreover, the TGI is over 100 µM in the assay with OVCAR-5 ovarian; under 0.0108 µM in the assay with K-562 leukemia; 97.9 µM in the assay on SK-OV-3 ovarian; 33.3 µM in the assay on LOX IMVI melanoma; under 0.01 µM in the assay on UACC-257 melanoma; over 100 µM in the assay on DU-145 prostate.
Take `CC1(C)N=C(C(N)=O)c2[nH]cnc2N1`: the TGI in the assay on RXF 393 renal, with SN12C renal, in the assay with SF-295 CNS, in the assay on PC-3 prostate, in the assay on UACC-62 melanoma and in the assay on HOP-62 NSCLC was over 100 µM each time. The TGI in the assay with 786-0 renal, in the assay on M14 melanoma, in the assay on OVCAR-4 ovarian, with NCI/ADR-RES ovarian, with SK-MEL-2 melanoma and with KM12 colon was over 100 µM throughout. The TGI in the assay on OVCAR-5 ovarian, in the assay on K-562 leukemia, in the assay with SK-OV-3 ovarian, with LOX IMVI melanoma, in the assay with UACC-257 melanoma and in the assay with DU-145 prostate was over 100 µM each time.
Consider `C/C(=C\C(=O)Nc1ccc2n[nH]nc2c1)Nc1ccc2n[nH]nc2c1`, for which the TGI in the assay with RXF 393 renal, in the assay on SN12C renal, in the assay on SF-295 CNS, in the assay on UACC-62 melanoma, in the assay on HOP-62 NSCLC and in the assay with 786-0 renal was over 100 µM throughout. Moreover, the TGI with M14 melanoma, in the assay with OVCAR-4 ovarian, with UO-31 renal, in the assay with KM12 colon, in the assay with OVCAR-5 ovarian and in the assay with K-562 leukemia was over 100 µM in each case. The TGI in the assay with SK-OV-3 ovarian, in the assay on LOX IMVI melanoma and with UACC-257 melanoma was over 100 µM each time.
As for `Nc1nc(SCc2ccccc2Cl)c2ncn(C3OC(CO)C(O)C3O)c2n1` (configuration not stated), the TGI in the assay on RXF 393 renal, in the assay on SN12C renal, in the assay with SF-295 CNS, with UACC-62 melanoma, in the assay on HOP-62 NSCLC and in the assay with 786-0 renal was over 100 µM throughout. Moreover, the TGI with M14 melanoma, in the assay on OVCAR-4 ovarian, with UO-31 renal, in the assay with SK-MEL-2 melanoma, with KM12 colon and in the assay on OVCAR-5 ovarian was over 100 µM throughout. Also, the TGI with K-562 leukemia, in the assay with SK-OV-3 ovarian and with LOX IMVI melanoma was over 100 µM each time.
In the case of `CC1CC(=O)N(N(C)C)C2(C#N)C(=O)N=C(N)C12C#N` (configuration not stated), the TGI in the assay with RXF 393 renal, with SN12C renal, in the assay on SF-295 CNS, with PC-3 prostate, with UACC-62 melanoma and with HOP-62 NSCLC was over 100 µM each time. Also, the TGI with 786-0 renal, with M14 melanoma, in the assay on OVCAR-4 ovarian, with UO-31 renal, in the assay with NCI/ADR-RES ovarian and in the assay on SK-MEL-2 melanoma was over 100 µM each time. Further, the TGI in the assay on KM12 colon was over 100 µM; in the assay with OVCAR-5 ovarian, over 100 µM; in the assay on K-562 leukemia, 59.6 µM; in the assay with SK-OV-3 ovarian, over 100 µM; with LOX IMVI melanoma, over 100 µM; in the assay on UACC-257 melanoma, over 100 µM. Moreover, in the assay on DU-145 prostate, the TGI was over 100 µM.
Consider `CSc1cc(Cl)c(C)cc1S(=O)(=O)NC(=O)NNc1ccc(C)cc1`, for which the TGI in the assay on RXF 393 renal, with SN12C renal, with SF-295 CNS, in the assay on PC-3 prostate, with HOP-62 NSCLC and in the assay on 786-0 renal was over 100 µM in each case. Also, the TGI with M14 melanoma, with OVCAR-4 ovarian, in the assay on NCI/ADR-RES ovarian, in the assay on SK-MEL-2 melanoma, with KM12 colon and in the assay on OVCAR-5 ovarian was over 100 µM throughout. Further, the TGI with K-562 leukemia, with SK-OV-3 ovarian, in the assay on LOX IMVI melanoma and with DU-145 prostate was over 100 µM throughout.
As to `Cc1ccc(S(=O)(=O)N/N=C2\C=CC3(CC2)C(=O)N(I)c2ccccc23)cc1` (configuration not stated), the TGI was 98 µM in the assay on RXF 393 renal; over 100 µM in the assay on SN12C renal; over 100 µM in the assay on SF-295 CNS; over 100 µM in the assay with PC-3 prostate; over 100 µM in the assay on UACC-62 melanoma; over 100 µM in the assay on HOP-62 NSCLC. In addition, the TGI in the assay with 786-0 renal, in the assay with M14 melanoma, with OVCAR-4 ovarian, in the assay with UO-31 renal, in the assay on NCI/ADR-RES ovarian and in the assay with SK-MEL-2 melanoma was over 100 µM in each case. For the same compound, the TGI in the assay with KM12 colon, in the assay on OVCAR-5 ovarian, in the assay with K-562 leukemia, in the assay on SK-OV-3 ovarian, in the assay on LOX IMVI melanoma and in the assay on UACC-257 melanoma was over 100 µM each time.
